Data taken from article PMC9817974, “Pharmacokinetic Basis for Using Saliva Matrine Concentrations as a Clinical Compliance Monitoring in Antitumor B Chemoprevention Trials in Humans” (Cancers, 2022).
Several values for one entry are separate records, joined by “and”; a condition that tells them apart may be missing. Equal entries are not always repeated. Where two headings read alike, the source gives them in different places.

Experiments:
[1] = Single-dose oral pharmacokinetic study of ATB tablets in healthy human subjects (plasma and saliva, non-compartmental analysis); format: in vivo; conditions: for AUC(0-t) / Cmax / Tmax / half-life / Kp: both sexes, human, po; for Kp: saliva and plasma; for inter-subject variability of systemic exposure (AUC): n = 8
Description: In addition, in vivo correlation between plasma and saliva concentrations was determined as the secondary outcome.
The ratio of drug concentration in plasma and saliva were calculated using Equations (1) and (2). (1) RCmax=Cmax saliva/Cmax plasma (2) RAUC=AUC0–24 saliva/AUC0–24 plasma […]
S2.1. Human Pharmacokinetic Study Design
The study was conducted in two phases. Two self-volunteered subjects participated in the study […]
Participants refrained from consumption of […]
dosing blood and saliva samples were collected. Each participant received single-dose oral […]
saliva sample kit for salivary collection. Plasma samples were then collected by centrifugation of […]
hour post-administration. […]
administration. […] Throughout the […]
collected and saline lock was removed. Participants returned the next day morning for 24-hour […]
Participants fasted 8-12 hours before each

[2] = Stability of ATB tablets (ICH storage conditions)
Description: Two independent batches of ATB tablets were tested according to International Conference on Harmonization (ICH) Guideline for long-term (12 months at 25 ± 2 °C/60 ± 5% RH), intermediate (6 months at 30 ± 2 °C/65 ± 5% RH), and accelerated (40 ± 2 °C/75 ± 5% RH) stability [12].

[3] = Sample stability of ATB components (bench, freeze-thaw, short-term, long-term); format: physicochemical; conditions: in % (unit assumed)
[4] = design: method as in ref [3] of Supplement S4 (Bui et al.); conditions: mice; ref [3] of Supplement S4 (Bui et al.); cited from earlier work
[5] = design: method as in Gao et al. [11]; conditions: blood/plasma ratio; ref Gao et al. [11]; cited from earlier work
[6] = Sample stability of ATB components (bench, freeze-thaw, short-term, long-term); format: physicochemical; conditions: in % (unit assumed); remark: listed apart in the source
Description: samples for calibration were prepared. The study and QC samples were prepared on the same day as the UPLC-MS/MS analysis was done.
Calibration curves were prepared the same way as described in section S1.2.2. The linearity of each calibration curve was determined by plotting the peak area ratio of Matr, Maac, Dict, and Frax to I.S. in plasma. […] The lower limit of […] was defined based on a signal-to-noise ratio of 10:1.
S1.2.4 Extraction recovery and matrix effect
The extraction recoveries of Matr, Maac, Dict, and Frax were determined by comparing the relative peak areas obtained from blank plasma spiked with analytes and those obtained from water spiked with the same amounts of analytes. Matrix effect was determined by comparing the peak areas of blank plasma extracts spikes with analytes and I.S. with those of the standard solutions dried and reconstituted with mobile phase. The quality control samples were prepared in plasma.
Bench work (25°C for 4 hours), short-term (-20°C for 7 days), long-term (-80°C for 4 months) and three freeze-thaw cycle stabilities were determined.

[7] = design: method as in Bui et al. [9]; conditions: ref Bui et al. [9]; cited from earlier work
[8] = design: method as in Gao et al. [11]; conditions: plasma; 1.2 g ATB (equal to 4.8 mg Matr); ref Gao et al. [11]; cited from earlier work
[9] = design: method as in PMID 33896325; conditions: cited from earlier work
[10] = tested on: OCT1, OCT2 and OCT3; design: method as in PMID 33896325; conditions: read-out: Km of uptake by OCT1, OCT2 and OCT3; cited from earlier work
[11] = average of 8 healthy volunteers, single oral dose 2400 mg ATB
[12] = average of 8 healthy volunteers, single oral dose 2400 mg ATB, plasma
[13] = average of 8 healthy volunteers, single oral dose 2400 mg ATB, saliva
[14] = individual subjects, single oral dose 2400 mg ATB (8 tablets)
[15] = individual subjects, single oral dose 2400 mg ATB (8 tablets), plasma
[16] = individual subjects, single oral dose 2400 mg ATB (8 tablets), saliva

O=C1CCC[C@@H]2[C@H]3CCCN4CCC[C@@H](CN12)[C@@H]34 [matrine]
AUC0–24 Saliva/Plasma Ratio [1, 11]: 4.8 ± 1.7 | Cmax Saliva/Plasma Ratio [1, 11]: 6.4 ± 1.8 | AUC0–24 Plasma [1, 12]: 278.34 ± 84.90 ng·h/mL | Half-Life Plasma [1, 12]: 10.38 ± 3.83 h | Tmax Plasma [1, 12]: 2.16 ± 0.69 h | AUC0–24 Saliva [1, 13]: 1302.37 ± 459.28 ng·h/mL | Half-Life Saliva [1, 13]: 12.37 ± 7.01 h | Tmax Saliva [1, 13]: 1.56 ± 0.82 h | AUC(0-t) ([1]; plasma, 2.6 mg, plasma, 2.6 mg Matr p.o. (8 ATB tablets), read-out: AUC0-T Healthy Volunteers Observed): 278 ng·h/mL | Cmax ([1]; plasma, 2.6 mg, plasma, 2.6 mg Matr p.o. (8 ATB tablets), read-out: Cmax Healthy Volunteers Observed): 25.2 ng/mL | Tmax ([1]; plasma, 2.6 mg, plasma, 2.6 mg Matr p.o. (8 ATB tablets), read-out: Tmax Healthy Volunteers Observed): 2.2 h | AUC(0-t) ([1]; plasma, 2400 mg, average of 8 healthy volunteers, single oral dose 2400 mg ATB, plasma, read-out: AUC0–24 Plasma): 266 ± 80 ng·h/mL | Cmax ([1]; plasma, 2400 mg, average of 8 healthy volunteers, single oral dose 2400 mg ATB, plasma, read-out: Cmax Plasma): 25.2 ± 3.82 ng/mL | half-life ([1]; plasma, 2400 mg, average of 8 healthy volunteers, single oral dose 2400 mg ATB, plasma, read-out: Half-Life Plasma (converted)): 10 ± 2.8 h | Tmax ([1]; plasma, 2400 mg, average of 8 healthy volunteers, single oral dose 2400 mg ATB, plasma, read-out: Tmax Plasma): 2 ± 0.6 h | Cmax ([1]; plasma, 2400 mg, individual subjects, single oral dose 2400 mg ATB (8 tablets), plasma, read-out: Cmax Plasma): 22.8 ng/mL | Kp ([1]; 2400 mg, average of 8 healthy volunteers, single oral dose 2400 mg ATB, read-out: AUC0–24 Saliva/Plasma Ratio): 4.8 ± 2 | Kp ([1]; 2400 mg, average of 8 healthy volunteers, single oral dose 2400 mg ATB, read-out: Cmax Saliva/Plasma Ratio): 6.4 ± 1.4 | AUC(0-t) ([1]; saliva, 2400 mg, average of 8 healthy volunteers, single oral dose 2400 mg ATB, saliva, read-out: AUC0–24 Saliva): 1210 ± 399 ng·h/mL | Cmax ([1]; saliva, 2400 mg, average of 8 healthy volunteers, single oral dose 2400 mg ATB, saliva, read-out: Cmax Saliva): 153 ± 53.5 ng/mL | half-life ([1]; saliva, 2400 mg, average of 8 healthy volunteers, single oral dose 2400 mg ATB, saliva, read-out: Half-Life Saliva (converted)): 13.4 ± 6.9 h | Tmax ([1]; saliva, 2400 mg, average of 8 healthy volunteers, single oral dose 2400 mg ATB, saliva, read-out: Tmax Saliva): 1.5 ± 0.9 h | AUC0–24 Saliva/Plasma Ratio [1, 14]: 8.57 and 4.71 and 2.86 and 4.68 and 4.61 and 4.14 and 4.81 and 3.93 | Cmax Saliva/Plasma Ratio [1, 14]: 6.73 and 5.60 and 3.26 and 5.12 and 7.05 and 7.41 and 7.27 and 9.08 | AUC0–24 Plasma [1, 15]: 173.50 ng·h/mL and 240.73 ng·h/mL and 295.05 ng·h/mL and 228.16 ng·h/mL and 408.92 ng·h/mL and 247.39 ng·h/mL and 428.83 ng·h/mL and 231.84 ng·h/mL | Cmax Plasma [1, 15]: 22.70 ng/mL and 28.06 ng/mL and 23.60 ng/mL and 28.56 ng/mL and 21.28 ng/mL and 31.91 ng/mL and 22.48 ng/mL | Half-Life Plasma [1, 15]: 6.99 h and 8.43 h and 15.12 h and 17.06 h and 10.66 h and 9.84 h and 6.29 h and 8.65 h | Tmax Plasma [1, 15]: 3 h and 3.3 h and 1 h | AUC0–24 Saliva [1, 16]: 1487.35 ng·h/mL and 1133.48 ng·h/mL and 845.11 ng·h/mL and 1067.94 ng·h/mL and 1884.98 ng·h/mL and 1024.67 ng·h/mL and 2064.14 ng·h/mL and 911.28 ng·h/mL | Cmax Saliva [1, 16]: 153.18 ng/mL and 127.11 ng/mL and 91.61 ng/mL and 120.81 ng/mL and 201.34 ng/mL and 157.71 ng/mL and 231.60 ng/mL and 204.07 ng/mL | Half-Life Saliva [1, 16]: 7.38 h and 9.83 h and 7.59 h and 26.39 h and 18.98 h and 11.13 h and 5.42 h and 12.23 h | Tmax Saliva [1, 16]: 0.5 h and 1 h and 3 h | inter-subject variability of systemic exposure (AUC) ([1]; plasma): 30.1% | inter-subject variability of systemic exposure (AUC) ([1]; saliva): 32.8% | remaining percentage in ATB tablets, Long term 3 months ([2]; 25 ± 2 °C/60 ± 5% RH): 89.1 ± 2.7% | remaining percentage in ATB tablets, Long term 6 months ([2]; 25 ± 2 °C/60 ± 5% RH): 93.9 ± 2.1% | remaining percentage in ATB tablets, Long term 12 months ([2]; 25 ± 2 °C/60 ± 5% RH): 89.6 ± 0.8% | remaining percentage in ATB tablets, Intermediate 3 months ([2]; 30 ± 2 °C/65 ± 5% RH): 89.6 ± 0.5% | remaining percentage in ATB tablets, Intermediate 6 months ([2]; 30 ± 2 °C/65 ± 5% RH): 92.1 ± 3.6% | remaining percentage in ATB tablets, Accelerated term 3 months ([2]; 40 ± 2 °C/75 ± 5% RH): 87.0 ± 5.0% | remaining percentage in ATB tablets, Accelerated term 6 months ([2]; 40 ± 2 °C/75 ± 5% RH): 99.4 ± 3.2% | Stability, Long-term (6 months, -80 oC) ([3]; HQC concentration level): 94.6 ± 6.7 | Stability, Bench work (4 hrs, 25 oC) ([3]; LOQ concentration level): 110.5 ± 18.0 | Stability, Long-term (6 months, -80 oC) ([3]; LOQ concentration level): 96.2 ± 0.6 | Stability, Short-term (7 days, -20 oC) ([3]; LOQ concentration level): 86.6 ± 3.8 | Stability, Long-term (6 months, -80 oC) ([3]; MQC concentration level): 105.8 ± 3.8 | Stability, Short-term (7 days, -20 oC) ([3]; MQC concentration level): 85.7 ± 8.7 | bioavailability [4]: 2.4 ± 1.2% | Rbp [5]: 0.97 | Stability, 3 cycles freeze-thaw ([6]; HQC concentration level): 99.1 ± 6.7 | Stability, Bench work (4 hrs, 25 oC) ([6]; HQC concentration level): 103.1 ± 2.6 | Stability, Short-term (7 days, -20 oC) ([6]; HQC concentration level): 88.3 ± 6.6 | Stability, 3 cycles freeze-thaw ([6]; LOQ concentration level): 109.6 ± 1.3 | Stability, 3 cycles freeze-thaw ([6]; MQC concentration level): 93.7 ± 3.4 | Stability, Bench work (4 hrs, 25 oC) ([6]; MQC concentration level): 85.8 ± 8.9 | First pass effect [7]: 26.00% | AUC0-T Human Subjects Observed [8]: 412.2 ng·h/mL | Cmax Human Subjects Observed [8]: 29.7 ng/mL | Tmax Human Subjects Observed [8]: 3.0 h

CN(C)C(=N)N=C(N)N [metformin]
saliva/plasma concentration ratio [9]: 0.29–0.39 | Km [10]: 285 to 3170 µM
